A short description of series [1]: Terminal half life in type 2 diabetes patient at 10 ug, sc bid. The class given is ADME, organism-based. The following applies: human, in vivo, read-out: beta t1/2 (converted).
A short description of series [2]: (§1) Half life in human. Type of series: ADME, organism-based. To be noted: in vivo.
The next series has as its target Albumin (Homo sapiens, UniProt P02768). Nature of the series: Binding affinity to serum albumin (unknown origin) relative to control. To be noted: isolated protein. Type of series: ADME.
The species named for series [3] is Homo sapiens. Described as §1. Type of series: ADME, organism-based. To be noted: in vivo.
For series [4], the system named is Homo sapiens. Nature of the series: Antidiabetic activity in type 2 diabetes patient assessed as reduction of body weight at => 0.8 mg administered once per week measured after 12 weeks (reference value: 1.2 kg). Type of series: functional, organism-based.
Series [5] relates to Homo sapiens. Nature of the series: Antidiabetic activity in type 2 diabetes patient assessed as reduction of HbA1c at => 0.2 mg administered once per week measured after 12 weeks (reference value: 0.5%). Also on record: scale not given: the % may be the effect or the level left. The class given is functional, organism-based.
Series [6] has as its system Homo sapiens. Nature of the series: Toxicity in type 2 diabetes patient assessed as gastro-intestinal side effects at 10 to 20 mg administered once per week up to 104 weeks. The class given is organism-based. To be noted: in vivo, 17472 h.

Chain of Albumin (P02768 whole entry): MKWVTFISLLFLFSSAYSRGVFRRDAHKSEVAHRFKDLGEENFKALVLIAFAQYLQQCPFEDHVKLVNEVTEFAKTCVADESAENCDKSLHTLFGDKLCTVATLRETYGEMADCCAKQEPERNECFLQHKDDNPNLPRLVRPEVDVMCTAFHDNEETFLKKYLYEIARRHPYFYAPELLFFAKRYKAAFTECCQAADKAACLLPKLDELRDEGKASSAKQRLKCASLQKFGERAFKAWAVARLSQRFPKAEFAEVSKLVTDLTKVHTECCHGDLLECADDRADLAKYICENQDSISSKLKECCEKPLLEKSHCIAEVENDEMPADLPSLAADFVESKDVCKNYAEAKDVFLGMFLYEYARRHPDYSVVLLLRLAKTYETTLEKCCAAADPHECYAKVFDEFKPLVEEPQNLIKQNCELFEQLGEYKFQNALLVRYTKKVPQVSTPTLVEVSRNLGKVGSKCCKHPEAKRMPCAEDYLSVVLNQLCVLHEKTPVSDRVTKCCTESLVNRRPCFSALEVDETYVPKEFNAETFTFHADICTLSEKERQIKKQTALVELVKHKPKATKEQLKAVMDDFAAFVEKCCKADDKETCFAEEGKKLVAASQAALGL

As for `CC[C@H](C)[C@H](NC(=O)[C@H](C)NC(=O)CNC(=O)[C@H](Cc1ccccc1)NC(=O)[C@H](CC(N)=O)NC(=O)[C@H](CC(N)=O)NC(=O)[C@H](CO)NC(=O)[C@H](CO)NC(=O)[C@H](Cc1c[nH]cn1)NC(=O)[C@@H](NC(=O)[C@H](CC(C)C)NC(=O)[C@H](Cc1ccccc1)NC(=O)[C@H](CC(N)=O)NC(=O)[C@H](C)NC(=O)[C@H](CC(C)C)NC(=O)[C@H](CCCNC(=N)N)NC(=O)[C@H](CCC(N)=O)NC(=O)[C@@H](NC(=O)[C@H](C)NC(=O)[C@@H]1CSSC[C@H](NC(=O)[C@@H](N)CCCCN)C(=O)N[C@@H](CC(N)=O)C(=O)N[C@@H]([C@@H](C)O)C(=O)N[C@@H](C)C(=O)N[C@@H]([C@@H](C)O)C(=O)N1)[C@@H](C)O)C(C)C)C(=O)N[C@@H](CC(C)C)C(=O)N[C@@H](CO)C(=O)N[C@@H](CO)C(=O)N[C@H](C(=O)N[C@@H](CC(N)=O)C(=O)N[C@H](C(=O)NCC(=O)N[C@@H](CO)C(=O)N[C@@H](CC(N)=O)C(=O)N[C@H](C(=O)N[C@@H](Cc1ccc(O)cc1)C(=O)O)[C@@H](C)O)C(C)C)[C@@H](C)O` [AMYLIN], in series [1], the half-life was 2.4 h.

In series [2], `CCCCCCCCCCCCCCCC(=O)N[C@@H](CCC(=O)NCCCC[C@H](NC(=O)[C@H](C)NC(=O)[C@H](C)NC(=O)[C@H](CCC(N)=O)NC(=O)CNC(=O)[C@H](CCC(=O)O)NC(=O)[C@H](CC(C)C)NC(=O)[C@H](Cc1ccc(O)cc1)NC(=O)[C@H](CO)NC(=O)[C@H](CO)NC(=O)[C@@H](NC(=O)[C@H](CC(=O)O)NC(=O)[C@H](CO)NC(=O)[C@@H](NC(=O)[C@H](Cc1ccccc1)NC(=O)[C@@H](NC(=O)CNC(=O)[C@H](CCC(=O)O)NC(=O)[C@H](C)NC(=O)[C@@H](N)Cc1cnc[nH]1)[C@@H](C)O)[C@@H](C)O)C(C)C)C(=O)N[C@@H](CCC(=O)O)C(=O)N[C@@H](Cc1ccccc1)C(=O)N[C@H](C(=O)N[C@@H](C)C(=O)N[C@@H](Cc1c[nH]c2ccccc12)C(=O)N[C@@H](CC(C)C)C(=O)N[C@H](C(=O)N[C@@H](CCCNC(=N)N)C(=O)NCC(=O)N[C@@H](CCCNC(=N)N)C(=O)NCC(=O)O)C(C)C)[C@@H](C)CC)C(=O)O` [LIRAGLUTIDE] showed a half-life of 264 h. Moreover, the Activity on Albumin is 99%.

SEMAGLUTIDE [listing 1 of 2 here] yielded a t1/2 in the series filed under Homo sapiens [3] of 160 h.

For the molecule SEMAGLUTIDE [listing 2 of 2 here], the Activity was under 4.8 kg with Homo sapiens [4] and under 1.7% in the series on Homo sapiens [5].

With TASPOGLUTIDE, in the series with Homo sapiens [6], the Activity worked out at 34%.

(Values after ChEMBL document CHEMBL2401711, “Recent progress and future options in the development of GLP-1 receptor agonists for the treatment of diabesity” (Bioorg Med Chem Lett, 2013).)
